Laboratory results: ChEMBL document CHEMBL4376882, “Photodynamic Therapy for ras-Driven Cancers: Targeting G-Quadruplex RNA Structures with Bifunctional Alkyl-Modified Porphyrins” (J Med Chem, 2020)
Active and inactive are the calls of the source. No cut-off for these calls is given here.

Columns and labels:
[1] = tested on: PANC-1; assay: Antitumor activity against human PANC1 cells xenografted in SCID mouse assessed as reduction in tumor growth at 3 mg/kg administered intratumorally measured after 14 days by micrometer caliper method; type: functional, organism-based
[2] = tested on: PANC-1; assay: Induction of apoptosis in human PANC1 cells assessed as early apoptotic cells at 15 nM and photoirradiated at 7.2 J/cm2 measured after 6 to 24 hrs by annexin-V-propidium iodide staining based FACScalibur flow cytometry analysis (reference value: 4.6 %); type: functional
[3] = tested on: PANC-1; assay: (§1) Induction of ROS generation in human PANC1 cells cleavage of CM-H2DCFDA to CM-H2DCF by intracellular esterase by measuring green fluorescence emission incubated for 16 hrs in presence of NAC followed by 7.2J/cm2 photoirradiation and subsequent compound washout measured after 40 mins by CM-H2DCFDA staining-based FACSCalibur flow cytometry; type: functional, cell-based
[4] = tested on: Quadruplex DNA; assay: Binding affinity to human KRAS utr-z RNA g-quadruplex assessed as induction of hypochromicity at 1.6 uM by UV-vis spectrophotometry relative to control; type: nucleic-acid assay
[5] = tested on: Quadruplex DNA; assay: Induction of ROS-mediated […] labeled Ras RNA g-quadruplex (unknown origin) degradation at 0.6 uM incubated for 30 mins in presence of NAC followed by photoirradiation for 15 to 30 mins by PAGE analysis; type: nucleic-acid assay
[6] = tested on: PANC-1; assay: Induction of apoptosis in human PANC1 cells assessed as viable cells at 5 nM and photoirradiated at 7.2 J/cm2 measured after 6 to 24 hrs by annexin-V-propidium iodide staining based FACScalibur flow cytometry analysis (reference value: 91.9 %); type: functional; settings: PANC-1, light or radiation study, read-out: Activity
[7] = Drug uptake in human PANC1 cells in presence of dynamin-inhibitor dynasore; type: ADME, cell-based; settings: panc-1
[8] = tested on: PANC-1; assay: Induction of apoptosis in human PANC1 cells assessed as late apoptotic cells at 5 nM and photoirradiated at 7.2 J/cm2 measured after 6 to 24 hrs in presence of NAC by annexin-V-propidium iodide staining based FACScalibur flow cytometry analysis (reference value: 1.3 %); type: functional
[9] = tested on: Quadruplex DNA; assay: Binding affinity to human KRAS utr-z RNA g-quadruplex assessed as emission spectra at absorbance 650 to 715 nm 1 uM by fluorescence titration method; type: nucleic-acid assay
[10] = Aggregation property of compound at > 40 degree C; type: physicochemical
[11] = tested on: PANC-1; assay: Induction of apoptosis in human PANC1 cells assessed as viable cells at 5 nM and photoirradiated at 7.2 J/cm2 measured after 6 to 24 hrs in presence of NAC by annexin-V-propidium iodide staining based FACScalibur flow cytometry analysis (reference value: 94.5 %); type: functional; settings: PANC-1, light or radiation study, read-out: Activity
[12] = Drug localization in cytoplasm of human PANC1 cells at 5 uM after 6 hrs by Hoechst staining based confocal microscopy; type: ADME, subcellular; settings: panc-1, 6 h
[13] = Drug uptake in human HEK293 cells at 5 uM and 4 degree C after 16 hrs by FACS analysis relative to 37 degree C; type: ADME, cell-based; settings: hek293, 16 h
[14] = tested on: PANC-1; assay: Photodynamic antitumor activity against human PANC1 cells xenografted in SCID mouse assessed as reduction in tumor growth at 3 mg/kg administered intratumorally after 2 hrs photoirradiated by diode laser at 193 J/cm2 by micrometer caliper method; type: functional, organism-based
[15] = tested on: PANC-1; assay: Induction of apoptosis in human PANC1 cells assessed as necrotic cells at 10 nM and photoirradiated at 7.2 J/cm2 measured after 6 to 24 hrs in presence of NAC by annexin-V-propidium iodide staining based FACScalibur flow cytometry analysis (reference value: 1 %); type: functional
[16] = tested on: PANC-1; assay: Induction of apoptosis in human PANC1 cells assessed as cleavage of caspase 3 when photoirradiated at 7.2 J/cm2 by Western blot analysis; type: functional, cell-based
[17] = tested on: PANC-1; assay: as §1, with “cells assessed as” for “cells”, “hrs” for “hrs in presence of NAC”; type: functional, cell-based
[18] = Induction of ROS-mediated […] labeled Ras RNA g-quadruplex (unknown origin) degradation at 0.6 uM incubated for 30 mins followed by photoirradiation for 15 to 30 mins by PAGE analysis
[19] = tested on: PANC-1; assay: Cytotoxicity against human PANC1 cells assessed as reduction in metabolic activity at 20 nM after 24 to 72 hrs in dark followed by photoirradiation in presence of NADH by resazurin assay; type: functional, cell-based
[20] = target: GTPase NRas (Homo sapiens) (UniProt P01111); assay: Inhibition of NRAS in human PANC1 cells assessed as decrease in NRAS mRNA level at 15 nM followed by 7.2 J/cm2 irradiation after 4 hrs by qRT-PCR analysis; type: cell-based
[21] = tested on: PANC-1; assay: Induction of apoptosis in human PANC1 cells assessed as cleavage of caspase 7 when photoirradiated at 7.2 J/cm2 by Western blot analysis; type: functional, cell-based
[22] = tested on: PANC-1; assay: Induction of apoptosis in human PANC1 cells assessed as early apoptotic cells at 5 nM and photoirradiated at 7.2 J/cm2 measured after 6 to 24 hrs in presence of NAC by annexin-V-propidium iodide staining based FACScalibur flow cytometry analysis (reference value: 3.1 %); type: functional
[23] = tested on: PANC-1; assay: Induction of apoptosis in human PANC1 cells assessed as late apoptotic cells at 15 nM and photoirradiated at 7.2 J/cm2 measured after 6 to 24 hrs in presence of NAC by annexin-V-propidium iodide staining based FACScalibur flow cytometry analysis (reference value: 1.3 %); type: functional
[24] = tested on: PANC-1; assay: Induction of apoptosis in human PANC1 cells assessed as viable cells at 10 nM and photoirradiated at 7.2 J/cm2 measured after 6 to 24 hrs in presence of NAC by annexin-V-propidium iodide staining based FACScalibur flow cytometry analysis (reference value: 94.5 %); type: functional; settings: PANC-1, light or radiation study, read-out: Activity
[25] = tested on: PANC-1; assay: Induction of apoptosis in human PANC1 cells assessed as early apoptotic cells at 10 nM and photoirradiated at 7.2 J/cm2 measured after 6 to 24 hrs in presence of NAC by annexin-V-propidium iodide staining based FACScalibur flow cytometry analysis (reference value: 3.1 %); type: functional
[26] = tested on: PANC-1; assay: Induction of apoptosis in human PANC1 cells assessed as viable cells at 15 nM and photoirradiated at 7.2 J/cm2 measured after 6 to 24 hrs in presence of NAC by annexin-V-propidium iodide staining based FACScalibur flow cytometry analysis (reference value: 94.5 %); type: functional; settings: PANC-1, light or radiation study, read-out: Activity
[27] = target: GTPase KRas (Homo sapiens) (UniProt P01116); assay: Inhibition of KRAS in human PANC1 cells assessed as decrease in KRAS mRNA level at 15 nM followed by 7.2 J/cm2 irradiation after 4 hrs by qRT-PCR analysis; type: cell-based
[28] = target: GTPase KRas (Homo sapiens) (UniProt P01116); assay: Inhibition of KRAS in human PANC1 cells assessed as downregulation of KRAS expression at 15 nM after 4 hrs by Western blot analysis; type: cell-based
[29] = tested on: Quadruplex DNA; assay: Induction of ROS-mediated […] labeled Ras RNA g-quadruplex (unknown origin) degradation assessed as increase in residual RNA g-quadruplex at 0.6 uM incubated for 30 mins in presence of NAC followed by photoirradiation for 15 to 30 mins by PAGE analysis relative to control; type: nucleic-acid assay

GTPase KRas (Homo sapiens), sequence (P01116 whole entry, looked up): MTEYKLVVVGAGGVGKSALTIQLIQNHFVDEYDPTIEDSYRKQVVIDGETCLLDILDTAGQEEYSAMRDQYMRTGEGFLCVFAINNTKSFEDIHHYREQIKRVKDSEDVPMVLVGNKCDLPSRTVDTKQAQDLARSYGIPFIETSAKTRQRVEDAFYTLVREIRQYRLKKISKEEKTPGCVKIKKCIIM
GTPase NRas (Homo sapiens), sequence (P01111 whole entry): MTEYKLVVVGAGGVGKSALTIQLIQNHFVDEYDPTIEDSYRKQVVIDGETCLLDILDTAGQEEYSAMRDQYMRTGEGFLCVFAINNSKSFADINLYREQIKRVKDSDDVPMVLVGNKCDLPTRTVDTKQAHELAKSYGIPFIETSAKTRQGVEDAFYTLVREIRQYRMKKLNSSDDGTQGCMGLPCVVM

Structure (SMILES): CCCCCCCCCCCCCC[n+]1ccc(-c2c3nc(c(-c4cc[n+](C)cc4)c4ccc([nH]4)c(-c4cc[n+](C)cc4)c4nc(c(-c5cc[n+](C)cc5)c5ccc2[nH]5)C=C4)C=C3)cc1.[I-].[I-].[I-].[I-]
- Activity [1]: inactive
- Activity [2]: 4.5%
- Activity [3]: inactive
- Activity [4]: 50%
- Activity [5]: inactive
- viability at 0.005 µM [6]: 88.2%
- Drug uptake [7]: Not Active
- Activity [8]: 1.1%
- Activity [9]: Active
- Activity [10]: Active
- viability at 0.005 µM [11]: 95.2%
- Drug uptake [12]: Active
- Drug uptake [13]: Active
- Activity [14]: Active
- Activity [15]: 2.3%
- Activity [16]: Active
- Activity [17]: Dose-dependent effect
- Activity [18]: Active
- Activity [19]: Active
- inhibition [20]: Active
- Activity [21]: Active
- Activity [22]: 2.4%
- Activity [23]: 5%
- viability at 0.01 µM [24]: 90.9%
- Activity [25]: 3.7%
- viability at 0.015 µM [26]: 89.4%
- inhibition [27]: Active
- inhibition [28]: inactive
- Activity [29]: 50%
